Experimental data published in patent publication US12312359B2 (Vitae Pharmaceuticals, LLC, priority 2016, dated 2025).
One block for each compound: values may come before it.

Key:
[1] = Concentration in water to achieve pH=7; type: physicochemical
[2] = Water activity analysis (slurries) of sesquifumaric acid salt forms; type: physicochemical; conditions: for Form conversion in water activity slurry: 0.22 aw (and up); for Result (solid form after water activity slurry): ambient, 7 days
[3] = Physical stability analysis of sesquifumaric acid salt forms (drying, heating); type: physicochemical
[4] = target: T1, biotinylated wild-type menin and MLL-AF9 fusion protein (menin/MLL binding) (Homo sapiens, UniProt O00255); experiment: Assay 1: menin/MLL binding AlphaLISA assay, wild-type menin; conditions: Table 30; column head does not say wild-type or mutated menin
T1 construct: made in house; host or cells: menin: E. coli; MLL-AF9-FLAG: HEK293 cells, used as cleared lysate
T1 sequence (O00255 1-610): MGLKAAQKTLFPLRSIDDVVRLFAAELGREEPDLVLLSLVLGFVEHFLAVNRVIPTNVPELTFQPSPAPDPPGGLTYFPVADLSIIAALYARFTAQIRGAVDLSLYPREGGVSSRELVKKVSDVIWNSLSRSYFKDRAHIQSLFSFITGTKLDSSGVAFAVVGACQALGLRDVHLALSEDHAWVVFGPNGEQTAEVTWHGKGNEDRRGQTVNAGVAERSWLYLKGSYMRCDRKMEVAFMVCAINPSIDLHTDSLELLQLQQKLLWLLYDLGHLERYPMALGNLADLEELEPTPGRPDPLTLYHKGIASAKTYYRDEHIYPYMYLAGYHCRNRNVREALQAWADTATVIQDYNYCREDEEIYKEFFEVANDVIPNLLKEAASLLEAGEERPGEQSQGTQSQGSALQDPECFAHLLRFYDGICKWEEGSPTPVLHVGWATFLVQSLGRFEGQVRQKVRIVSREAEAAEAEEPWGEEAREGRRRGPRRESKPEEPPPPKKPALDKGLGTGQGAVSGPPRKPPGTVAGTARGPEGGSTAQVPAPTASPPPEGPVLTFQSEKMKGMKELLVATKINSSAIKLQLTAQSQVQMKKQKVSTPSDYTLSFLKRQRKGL
In short: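 Compound was preincubated 30 min at room temperature with biotinylated menin (5 nM) and MLL-AF9-FLAG lysate from HEK293 cells, pH 7.4 buffer with 5% DMSO and DTT. Bead-based Alpha signal after 60 min with streptavidin donor and anti-FLAG acceptor beads; four-parameter logistic fit gave IC50.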

[5] = test system: human acute monocytic leukemia cell line MV-4-11; experiment: Assay 2: cell proliferation assay (ATP quantitation, CellTiter-Glo), MV-4-11; type: cell-based; conditions: Homo sapiens, MV4-11, 72 h, MV-4-11 cells
In short: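 MV-4-11 cells, 1.67×10^4 per well in medium with 10% FBS, were exposed to compound for 72 h at 37° C., 5% CO2; HL-60 cells served as toxicity control. Proliferation read as ATP content by CellTiter-Glo luminescence.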

SMILES: CCN(C(=O)c1cc(F)ccc1Oc1cncnc1N1CC2(CCN(CC3CCC(NS(=O)(=O)CC)CC3)CC2)C1)C(C)C.Cl.Cl (centres unmarked) [Example 257, N-Ethyl-2-((4-(7-(((1r,4r)-4-(ethylsulfonamido)cyclohexyl)methyl)-2,7-diazaspiro[3.5]nonan-2-yl)pyrimidin-5-yl)oxy)-5-fluoro-N-isopropylbenzamide Bis-Hydrochloric Acid Salt]
Concentration in water to achieve pH=7 [1]: 317.6 mg/mL

SMILES: CC(C)N(C(=O)c1cc(F)ccc1Oc1cncnc1N1CC2(CCN(C[C@H]3CC[C@H](NS(C)(=O)=O)CC3)CC2)C1)C(C)C.CC(C)N(C(=O)c1cc(F)ccc1Oc1cncnc1N1CC2(CCN(C[C@H]3CC[C@H](NS(C)(=O)=O)CC3)CC2)C1)C(C)C.O=C(O)/C=C/C(=O)O.O=C(O)/C=C/C(=O)O.O=C(O)/C=C/C(=O)O [Form B, 5-fluoro-N,N-diisopropyl-2-((4-(7-(((1r,4r)-4-(methylsulfonamido)cyclohexyl)methyl)-2,7-diazaspiro[3.5]nonan-2-yl)pyrimidin-5-yl)oxy)benzamide sesquifumaric acid salt]
Form conversion in water activity slurry [2]: Converted to Form A
Form change after 45° C. vacuum oven [3]: converted to Form D

SMILES: CC(C)N(C(=O)c1cc(F)ccc1Oc1cncnc1N1CC2(CCN(C[C@H]3CC[C@H](NS(C)(=O)=O)CC3)CC2)C1)C(C)C.CC(C)N(C(=O)c1cc(F)ccc1Oc1cncnc1N1CC2(CCN(C[C@H]3CC[C@H](NS(C)(=O)=O)CC3)CC2)C1)C(C)C.O=C(O)/C=C/C(=O)O.O=C(O)/C=C/C(=O)O.O=C(O)/C=C/C(=O)O [Form D, 5-fluoro-N,N-diisopropyl-2-((4-(7-(((1r,4r)-4-(methylsulfonamido)cyclohexyl)methyl)-2,7-diazaspiro[3.5]nonan-2-yl)pyrimidin-5-yl)oxy)benzamide sesquifumaric acid salt]
Form conversion in water activity slurry [2]: Converted to Form A
Result (solid form after physical stability stress) ([3]; 75% RH, 2 days): Form D

SMILES: CC(C)N(C(=O)c1cc(F)ccc1Oc1cncnc1N1CC2(CCN(C[C@H]3CC[C@H](NS(C)(=O)=O)CC3)CC2)C1)C(C)C.CC(C)N(C(=O)c1cc(F)ccc1Oc1cncnc1N1CC2(CCN(C[C@H]3CC[C@H](NS(C)(=O)=O)CC3)CC2)C1)C(C)C.O=C(O)/C=C/C(=O)O.O=C(O)/C=C/C(=O)O.O=C(O)/C=C/C(=O)O [Form E, 5-fluoro-N,N-diisopropyl-2-((4-(7-(((1r,4r)-4-(methylsulfonamido)cyclohexyl)methyl)-2,7-diazaspiro[3.5]nonan-2-yl)pyrimidin-5-yl)oxy)benzamide sesquifumaric acid salt]
Form change after 45° C. vacuum oven [3]: No changes observed in XRPD
Result (solid form after physical stability stress) ([3]; 45° C. vacuum, 1 day): Form E

SMILES: CCN(C(=O)c1cc(F)ccc1Oc1cncnc1N1CC2(CCN(CC3CCC(NS(=O)(=O)CC)CC3)CC2)C1)C(C)C.CCN(C(=O)c1cc(F)ccc1Oc1cncnc1N1CC2(CCN(CC3CCC(NS(=O)(=O)CC)CC3)CC2)C1)C(C)C.O=C(O)/C=C/C(=O)O.O=C(O)/C=C/C(=O)O.O=C(O)/C=C/C(=O)O (centres unmarked) [Example 255, N-Ethyl-2-((4-(7-(((1r,4r)-4-(ethylsulfonamido)cyclohexyl)methyl)-2,7-diazaspiro[3.5]nonan-2-yl)pyrimidin-5-yl)oxy)-5-fluoro-N-isopropylbenzamide Sesquifumaric Acid Salt]
Concentration in water to achieve pH=7 [1]: 224.7 mg/mL

SMILES: CCN(C(=O)c1cc(F)ccc1Oc1cncnc1N1CC2(CCN(CC3CCC(NS(=O)(=O)CC)CC3)CC2)C1)C(C)C.CS(=O)(=O)O.CS(=O)(=O)O (centres unmarked) [Example 256, N-Ethyl-2-((4-(7-(((1r,4r)-4-(ethylsulfonamido)cyclohexyl)methyl)-2,7-diazaspiro[3.5]nonan-2-yl)pyrimidin-5-yl)oxy)-5-fluoro-N-isopropylbenzamide Bis-Methanesulfonic Acid Salt]
Concentration in water to achieve pH=7 [1]: 261 mg/mL

SMILES: CCN(C(=O)c1cc(F)ccc1Oc1cncnc1N1CC2(CCN(CC3CCC(NS(=O)(=O)CC)CC3)CC2)C1)C(C)C (centres unmarked) [Example 254, N-Ethyl-2-((4-(7-(((1r,4r)-4-(ethylsulfonamido)cyclohexyl)methyl)-2,7-diazaspiro[3.5]nonan-2-yl)pyrimidin-5-yl)oxy)-5-fluoro-N-isopropylbenzamide]
Concentration in water to achieve pH=7 [1]: 7.6 mg/mL

SMILES: CC(C)N(C(=O)c1cc(F)ccc1Oc1cncnc1N1CC2(CCN(CC3CCC(NS(C)(=O)=O)CC3)CC2)C1)C(C)C.CC(C)N(C(=O)c1cc(F)ccc1Oc1cncnc1N1CC2(CCN(CC3CCC(NS(C)(=O)=O)CC3)CC2)C1)C(C)C.O=C(O)/C=C/C(=O)O.O=C(O)/C=C/C(=O)O.O=C(O)/C=C/C(=O)O (centres unmarked)
Result (solid form after water activity slurry) ([2]; H2O/ACN, water activity 0.38 (2 vol % H2O)): Form A
Result (solid form after water activity slurry) ([2]; H2O/ACN, water activity 0.60 (4 vol % H2O)): Form A
Result (solid form after water activity slurry) ([2]; H2O/IPA, water activity 0.50 (6 vol % H2O)): Form A
Result (solid form after water activity slurry) ([2]; H2O/IPA, water activity 0.70 (11 vol % H2O)): Form A
Result (solid form after water activity slurry) ([2]; H2O/IPA, water activity 0.96 (50 vol % H2O)): Form A
Result (solid form after water activity slurry) ([2]; H2O/acetone, water activity 0.22 (1 vol % H2O)): Form A
Result (solid form after water activity slurry) ([2]; H2O/acetone, water activity 0.44 (3 vol % H2O)): Form A
Result (solid form after water activity slurry) ([2]; H2O/acetone, water activity 0.80 (18 vol % H2O)): Form A
Result (solid form after water activity slurry) ([2]; H2O/acetone, water activity 0.91 (50 vol % H2O)): Form A

SMILES: CC(C)N(C(=O)c1cc(F)ccc1Oc1cncnc1N1CC2(CCN(C[C@H]3CC[C@H](NS(C)(=O)=O)CC3)CC2)C1)C(C)C.CC(C)N(C(=O)c1cc(F)ccc1Oc1cncnc1N1CC2(CCN(C[C@H]3CC[C@H](NS(C)(=O)=O)CC3)CC2)C1)C(C)C.O=C(O)/C=C/C(=O)O.O=C(O)/C=C/C(=O)O.O=C(O)/C=C/C(=O)O [Form F, 5-fluoro-N,N-diisopropyl-2-((4-(7-(((1r,4r)-4-(methylsulfonamido)cyclohexyl)methyl)-2,7-diazaspiro[3.5]nonan-2-yl)pyrimidin-5-yl)oxy)benzamide sesquifumaric acid salt]
Form conversion when slurried in ACN/water mixture ([2]; slurried in ACN/water mixture): Conversion to Form A was observed

IC50 [4]: < 0.1 µM
EC50 [5]: 0.1 to 1 µM
SMILES: CC(C)N(C(=O)c1cc(F)ccc1Oc1cncnc1N1CC2(CCN(CC3CCC4(CC3)OCCO4)CC2)C1)C(C)C [Example 100, 2-((4-(7-((1,4-dioxaspiro[4.5]decan-8-yl)methyl)-2,7-diazaspiro[3.5]nonan-2-yl)pyrimidin-5-yl)oxy)-5-fluoro-N,N-diisopropylbenzamide]

IC50 [4]: < 0.1 µM
EC50 [5]: 0.1 to 1 µM
SMILES: CC(C)n1nccc1-c1cc(F)ccc1Oc1cncnc1N1CCC2(CCN(C(=O)C(N)C3CCCCC3)C2)C1 (single isomer, unassigned) [Example 206A, 2-amino-2-cyclohexyl-1-(7-(5-(4-fluoro-2-(1-isopropyl-1H-pyrazol-5-yl)phenoxy)pyrimidin-4-yl)-2,7-diazaspiro[4.4]nonan-2-yl)ethanone]

IC50 [4]: < 0.1 µM
EC50 [5]: 0.1 to 1 µM
SMILES: N#Cc1ccc(-c2cc(F)ccc2Oc2cncnc2N2CCC3(CCN(Cc4ccc5c(c4)CC(=O)N5)C3)C2)c(C2CC2)c1 (centres unmarked) [Example 204, 2-cyclopropyl-5′-fluoro-2′-((4-(7-((2-oxoindolin-5-yl)methyl)-2,7-diazaspiro[4.4]nonan-2-yl)pyrimidin-5-yl)oxy)-[1,1′-biphenyl]-4-carbonitrile]
